Data reported in PubChem BioAssay (NCI).
Values joined by “and” are separate entries in the source; they are usually repeats but may differ in a detail not shown here. Equal values may be shown once.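 Interpolation was linear, between the two tested concentrations surrounding the appropriate level; five concentrations were tested over 48 hours in 96-well plates. At the GI50, growth is halved. Definition used: TGI = concentration required for complete inhibition of growth.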

What was measured:
Experiment in all cases: NCI anticancer screen, dose series, 48 h
NCI/ADR-RES ovarian = tested on: NCI/ADR-RES ovarian
SW-620 colon = tested on: SW-620 colon
NCI-H23 lung = tested on: NCI-H23 lung
DU-145 prostate = tested on: DU-145 prostate
MALME-3M melanoma = tested on: MALME-3M melanoma
HCT-116 colon = tested on: HCT-116 colon
OVCAR-8 ovarian = tested on: OVCAR-8 ovarian
NCI-H226 lung = tested on: NCI-H226 lung
COLO 205 colon = tested on: COLO 205 colon
PC-3 prostate = tested on: PC-3 prostate

Compound	GI50 (NCI/ADR-RES ovarian)	TGI (NCI/ADR-RES ovarian)	GI50 (SW-620 colon)	TGI (SW-620 colon)	GI50 (NCI-H23 lung)	TGI (NCI-H23 lung)	GI50 (DU-145 prostate)	TGI (DU-145 prostate)	GI50 (MALME-3M melanoma)	TGI (MALME-3M melanoma)	GI50 (HCT-116 colon)	TGI (HCT-116 colon)	GI50 (OVCAR-8 ovarian)	TGI (OVCAR-8 ovarian)	GI50 (NCI-H226 lung)	TGI (NCI-H226 lung)	GI50 (COLO 205 colon)	TGI (COLO 205 colon)	GI50 (PC-3 prostate)	TGI (PC-3 prostate)
COc1ccc2c(c1)C(=O)/C(=C/c1cccc(OCC(=O)c3ccccc3)c1)O2	8.9 µM	26.4 µM	1.77 µM	3.43 µM	4.37 µM	15.8 µM	3.9 µM	13.7 µM	1.95 µM	4.8 µM	1.53 µM	2.96 µM	16.4 µM	31.4 µM	15.9 µM	43.5 µM	1.9 µM	3.57 µM	4.44 µM	17.4 µM
O=C(O)CSCCc1ccccc1	–	> 100 µM	–	> 100 µM	–	> 100 µM	–	> 100 µM	–	> 100 µM	–	> 100 µM	–	> 100 µM	–	> 100 µM	–	> 100 µM	–	> 100 µM
CSC(SC)(C(=O)O)c1cc(-c2c(Cl)cccc2Cl)no1	–	> 100 µM	–	> 100 µM	–	79 µM	–	> 100 µM	–	> 100 µM	–	> 100 µM	–	> 100 µM	–	> 100 µM	–	> 100 µM	–	> 100 µM
CNC(=O)OCc1c(COC(=O)NC)c(-c2ccc(-c3ccccc3)cc2)n(C)c1C	–	12.6 µM	–	28.3 µM	–	10.2 µM	–	9.4 µM	–	10.6 µM	–	14.1 µM	–	10.4 µM	–	32.5 µM	–	16.5 µM	–	12.3 µM
COc1ccc2c(c1)NC1=C(C(=O)OC1)C2c1cc(OC)c(OC)c(OC)c1 (stereo unspecified)	< 0.01 µM	0.0277 µM	< 0.01 µM	> 100 µM	< 0.01 µM	> 77 µM	< 0.01 µM	< 0.01 µM	26 µM	> 100 µM	< 0.01 µM	> 100 µM	< 0.01 µM	> 100 µM	< 0.01 µM	> 100 µM	< 0.01 µM	< 0.01 µM	< 0.01 µM	> 100 µM
Cc1cn(C2CC(OC(=O)c3ccc(Cl)cc3)C(COC(=O)c3ccc(Cl)cc3)O2)c(=O)[nH]c1=O (stereo unspecified)	–	> 100 µM	–	> 100 µM	–	> 100 µM	–	> 100 µM	–	> 100 µM	–	> 100 µM	–	> 100 µM	–	> 100 µM	–	> 100 µM	–	> 100 µM
O=c1[nH]c2ccccc2cc1-c1nc2ccc(Cl)cc2[nH]1	6.09 µM	> 100 µM	4.81 µM	> 100 µM	4.7 µM	> 100 µM	7.68 µM	64.2 µM	> 100 µM	> 100 µM	2.66 µM	21.4 µM	6.51 µM	> 100 µM	2.71 µM	> 100 µM	3.25 µM	> 100 µM	3.71 µM	29.1 µM
Cc1nnc(-c2ccc(C)c(-c3ccc(C(=O)Nc4cccc(C#N)c4)cc3)c2)o1	> 25 µM	> 25 µM	> 25 µM	> 25 µM	> 25 µM	> 25 µM	> 25 µM	> 25 µM	> 25 µM	> 25 µM	> 25 µM	> 25 µM	> 25 µM	> 25 µM	> 10.9 µM	> 25 µM	> 25 µM	> 25 µM	> 25 µM	> 25 µM
C=CC(=O)N1CCC(Oc2cc3c(Nc4ccc(Cl)c(Cl)c4F)ncnc3cc2OC)CC1	1.43 µM and 1.41 µM	10.3 µM and > 9.25 µM	10.3 µM and 4.24 µM	34.2 µM and > 10 µM	4.52 µM and 3.18 µM	21.7 µM and > 10 µM	–	15.4 µM and > 10 µM	7.36 µM and > 5.35 µM	23.9 µM and > 10 µM	5.28 µM and 3.72 µM	18.9 µM and > 10 µM	4.52 µM and 1.91 µM	28.6 µM and > 10 µM	1.84 µM and 0.944 µM	16.2 µM and > 10 µM	4.26 µM and 3.52 µM	17.4 µM and > 10 µM	7.66 µM and 2.95 µM	24.5 µM and > 10 µM
NCCCNCCS	–	> 100 µM	> 100 µM and 46.3 µM	> 100 µM	–	> 100 µM	–	> 100 µM	–	> 100 µM	–	> 100 µM	–	> 100 µM	–	> 100 µM	> 100 µM and 46.9 µM	> 100 µM	–	> 100 µM
Cc1ccc(C2=C(c3ccc(C)cc3)C3(c4ccc(C)cc4)C4C(=O)OC(=O)C4C2(c2ccc(C)cc2)S3=O)cc1 (stereo unspecified)	46.4 µM	> 100 µM	38.1 µM	> 100 µM	18.2 µM	41.8 µM	47.6 µM	> 100 µM	27.9 µM	84 µM	23.7 µM	92.5 µM	25.7 µM	> 100 µM	11 µM	48.3 µM	51.2 µM	> 100 µM	25 µM	> 100 µM
CCN1C(=O)c2ccc3c4c(ccc(c24)C1=O)C(=O)N(CCCNCc1ccccc1OC)C3=O	1.04 µM	5.96 µM	0.362 µM	1.77 µM	0.782 µM	3.68 µM	1.22 µM	2.5 µM	0.186 µM	0.391 µM	0.329 µM	1.14 µM	0.438 µM	2.87 µM	1.28 µM	2.77 µM	0.201 µM	0.382 µM	0.613 µM	5.18 µM
